Laboratory results from paper PMC10805714, “Functionally-selective inhibition of threshold sodium currents and excitability in dorsal root ganglion neurons by cannabinol” (Communications Biology, 2024).

Columns and labels:
Nav1.7-P610T = molecular target: T1, Nav1.7-P610T (Homo sapiens, UniProt Q15858, P610T); assay: automated patch-clamp, steady-state inactivation shift with […] s pre-pulse; type: cell-based
T1 construct: gene SCN9A; P610T plasmid transfected in HEK293 cells

Nav1.7 = molecular target: T2, Nav1.7 (Homo sapiens, UniProt Q15858); assay: automated whole-cell patch-clamp (Qube-384), IC50 at -90 mV holding-potential; type: cell-based
T2 construct: gene SCN9A; human Nav1.7 stably expressed in HEK293 cells; with SCN1B (human, co-transfected)
T2 sequence (Q15858 whole entry): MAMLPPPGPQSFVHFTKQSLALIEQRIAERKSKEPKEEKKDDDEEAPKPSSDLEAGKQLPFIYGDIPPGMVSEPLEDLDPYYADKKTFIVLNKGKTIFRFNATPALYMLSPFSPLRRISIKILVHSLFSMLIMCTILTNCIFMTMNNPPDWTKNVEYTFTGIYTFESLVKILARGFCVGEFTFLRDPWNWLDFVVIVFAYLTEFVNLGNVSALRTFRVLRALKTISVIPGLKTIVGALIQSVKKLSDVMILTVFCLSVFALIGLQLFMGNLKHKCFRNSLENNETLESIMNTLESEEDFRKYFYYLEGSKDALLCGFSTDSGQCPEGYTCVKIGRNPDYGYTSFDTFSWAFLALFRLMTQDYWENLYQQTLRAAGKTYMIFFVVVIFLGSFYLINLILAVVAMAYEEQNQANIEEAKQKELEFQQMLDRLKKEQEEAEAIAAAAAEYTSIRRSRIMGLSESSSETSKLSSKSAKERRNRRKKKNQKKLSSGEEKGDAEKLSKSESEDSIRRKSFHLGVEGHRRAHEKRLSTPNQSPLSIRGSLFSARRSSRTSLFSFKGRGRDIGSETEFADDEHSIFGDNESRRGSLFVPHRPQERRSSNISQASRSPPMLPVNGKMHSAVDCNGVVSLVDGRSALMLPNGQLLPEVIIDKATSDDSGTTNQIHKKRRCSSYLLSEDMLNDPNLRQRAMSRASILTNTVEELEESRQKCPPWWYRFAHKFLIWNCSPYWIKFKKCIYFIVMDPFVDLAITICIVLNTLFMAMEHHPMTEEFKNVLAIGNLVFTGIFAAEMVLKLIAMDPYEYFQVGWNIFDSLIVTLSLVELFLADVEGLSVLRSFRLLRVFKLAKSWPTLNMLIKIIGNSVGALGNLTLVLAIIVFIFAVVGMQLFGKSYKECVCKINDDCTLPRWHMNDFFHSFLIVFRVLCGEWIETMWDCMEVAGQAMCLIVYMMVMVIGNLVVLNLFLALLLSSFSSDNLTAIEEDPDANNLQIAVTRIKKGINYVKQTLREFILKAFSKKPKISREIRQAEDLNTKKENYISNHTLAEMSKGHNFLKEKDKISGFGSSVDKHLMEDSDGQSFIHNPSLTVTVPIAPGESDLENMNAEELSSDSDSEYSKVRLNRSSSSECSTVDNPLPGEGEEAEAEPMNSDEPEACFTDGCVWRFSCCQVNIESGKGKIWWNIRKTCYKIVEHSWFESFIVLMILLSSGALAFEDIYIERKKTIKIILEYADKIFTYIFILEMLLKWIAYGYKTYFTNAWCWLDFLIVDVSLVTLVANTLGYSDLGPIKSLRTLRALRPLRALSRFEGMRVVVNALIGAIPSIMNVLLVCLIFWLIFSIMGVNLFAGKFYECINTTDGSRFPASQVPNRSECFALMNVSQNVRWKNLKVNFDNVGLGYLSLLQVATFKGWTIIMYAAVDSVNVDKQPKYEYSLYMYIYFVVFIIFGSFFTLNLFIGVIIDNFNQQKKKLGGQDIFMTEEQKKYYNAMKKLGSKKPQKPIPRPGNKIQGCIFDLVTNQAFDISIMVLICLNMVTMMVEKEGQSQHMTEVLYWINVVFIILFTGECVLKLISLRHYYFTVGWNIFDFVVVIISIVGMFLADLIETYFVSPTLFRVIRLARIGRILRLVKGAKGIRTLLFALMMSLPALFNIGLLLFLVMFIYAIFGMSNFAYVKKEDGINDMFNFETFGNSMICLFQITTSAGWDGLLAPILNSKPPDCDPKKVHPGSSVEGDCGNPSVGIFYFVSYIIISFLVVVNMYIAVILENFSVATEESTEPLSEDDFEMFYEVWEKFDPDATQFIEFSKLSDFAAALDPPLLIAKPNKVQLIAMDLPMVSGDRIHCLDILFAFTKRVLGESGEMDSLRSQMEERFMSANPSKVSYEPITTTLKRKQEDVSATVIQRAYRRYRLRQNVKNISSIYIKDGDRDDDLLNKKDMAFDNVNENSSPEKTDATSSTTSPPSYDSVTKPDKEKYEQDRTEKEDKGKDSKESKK
T2 sequence (Q07699 19-218 partner): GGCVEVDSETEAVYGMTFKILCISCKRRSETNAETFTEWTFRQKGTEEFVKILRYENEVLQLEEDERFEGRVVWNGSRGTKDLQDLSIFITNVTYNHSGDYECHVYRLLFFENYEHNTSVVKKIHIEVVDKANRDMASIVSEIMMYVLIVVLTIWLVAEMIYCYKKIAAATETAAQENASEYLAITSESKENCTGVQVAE

T1 sequence (Q15858 whole entry P610T): as the sequence (Q15858 whole entry) above, with P610T counted along it

CCCCCc1cc(O)c2c(c1)OC(C)(C)c1ccc(C)cc1-2 [CBN, Cannabinol]
automated patch-clamp, steady-state inactivation shift with 5 s pre-pulse (Nav1.7-P610T): CBN hyperpolarized the SSI curves in both WT and P610T (Fig. S1) | IC50 (Nav1.7): 10.7 µM
